Test results taken from patent US20220048944A1, “FUNC[…] AS ANTIVIRAL AGENTS” (Enanta Pharmaceuticals, Inc., priority 2020, published 2022).

Molecular target: SARS-CoV-2 3CL-protease (Severe acute respiratory syndrome coronavirus 2, UniProt P0DTD1)
Experiment: SARS-CoV-2 3C-like (3CL) protease fluorescence assay (FRET)
Type: biochemical
Details: recombinant SARS-CoV-2 3CL-protease 10 nM, TAMRA-[…]-Dabcyl-OH substrate, 30 min preincubation at RT, run in duplicate
Method: SARS-CoV-2 3C-like (3CL) protease fluorescence assay (FRET): Recombinant SARS-CoV-2 3CL-protease was expressed and purified. […] Black, low volume, round-bottom, 384 well microplates were used. In a typical assay, 0.85 μL of test compound was dissolved in DMSO then incubated with SARS-CoV-2 3CL-protease (10 nM) in 10 μL assay buffer (50 mM HEPES [pH 7.5], 1 mM DTT, 0.01% BSA, 0.01% Triton-X 100) for 30 min at RT. Next, 10 μL of 3CL-protease substrate (40 μM) in assay buffer was added and the assays were monitored continuously for 1 h in an Envision multimode plate reader operating in fluorescence kinetics mode with excitation at 540 nm and emission at 580 nm at RT. No compound (DMSO only) and no enzyme controls were routinely included in each plate. All experiments were run in duplicate.
Data were fitted to normalized activity (variable slope) versus concentration fit in GraphPad Prism 7 to determine IC50.

| SMILES | IC50 |
| --- | --- |
| CC(C)C[C@H](NC(=O)c1cc2ccccc2o1)C(=O)N[C@H](C#N)C[C@@H]1CCNC1=O [Example 13, N—((S)-1-(((S)-1-cyano-2-((S)-2-oxopyrrolidin-3-yl)ethyl)amino)-4-methyl-1-oxopentan-2-yl)benzofuran-2-carboxamide] | > 1000 nM |
| COc1cccc2[nH]c(C(=O)N[C@@H](CC(C)C)C(=O)N[C@H](C#N)C[C@@H]3CCCNC3=O)cc12 [Example 16, N—((S)-1-(((S)-1-cyano-2-((S)-2-oxopiperidin-3-yl)ethyl)amino)-4-methyl-1-oxopentan-2-yl)-4-methoxy-1H-indole-2-carboxamide] | < 100 nM |
| N#C[C@H](C[C@@H]1CCNC1=O)NC(=O)[C@H](CC1CCCCC1)NC(=O)c1cc2ccccc2o1 [Example 22, N—((S)-1-(((S)-1-cyano-2-((S)-2-oxopyrrolidin-3-yl)ethyl)amino)-3-cyclohexyl-1-oxopropan-2-yl)benzofuran-2-carboxamide] | > 1000 nM |
| COc1cccc2[nH]c(C(=O)N[C@@H](CC3CCCC3)C(=O)N[C@H](C#N)C[C@@H]3CCNC3=O)cc12 [Example 10, N—((S)-1-(((S)-1-cyano-2-((S)-2-oxopyrrolidin-3-yl)ethyl)amino)-3-cyclopentyl-1-oxopropan-2-yl)-4-methoxy-1H-indole-2-carboxamide] | 100 to 1000 nM |
| COc1cccc2[nH]c(C(=O)N[C@@H](CCCc3ccccc3)C(=O)N[C@H](C#N)C[C@@H]3CCNC3=O)cc12 [Example 11, N—((S)-1-(((S)-1-cyano-2-((S)-2-oxopyrrolidin-3-yl)ethyl)amino)-1-oxo-5-phenylpentan-2-yl)-4-methoxy-1H-indole-2-carboxamide] | > 1000 nM |
| COc1cccc2[nH]c(C(=O)N[C@H](C(=O)N[C@H](C#N)C[C@@H]3CCNC3=O)C(C)(C)C)cc12 [Example 19, N—((S)-1-(((S)-1-cyano-2-((S)-2-oxopyrrolidin-3-yl)ethyl)amino)-3,3-dimethyl-1-oxobutan-2-yl)-4-methoxy-1H-indole-2-carboxamide] | > 1000 nM |
| COc1cccc2[nH]c(C(=O)N[C@H](C(=O)N[C@H](C#N)C[C@@H]3CCNC3=O)C3CCCCC3)cc12 [Example 6, N—((S)-2-(((S)-1-cyano-2-((S)-2-oxopyrrolidin-3-yl)ethyl)amino)-1-cyclohexyl-2-oxoethyl)-4-methoxy-1H-indole-2-carboxamide] | > 1000 nM |
| CC(C)C[C@H](NC(=O)c1cc2ccccc2[nH]1)C(=O)N[C@H](C#N)C[C@@H]1CCNC1=O [Example 2, N—((S)-1-(((S)-1-cyano-2-((S)-2-oxopyrrolidin-3-yl)ethyl)amino)-4-methyl-1-oxopentan-2-yl)-1H-indole-2-carboxamide] | 100 to 1000 nM |
| COc1cccc2[nH]c(C(=O)N[C@@H](CSC)C(=O)N[C@H](C#N)C[C@@H]3CCNC3=O)cc12 [Example 24, N—((R)-1-(((S)-1-cyano-2-((S)-2-oxopyrrolidin-3-yl)ethyl)amino)-3-(methylthio)-1-oxopropan-2-yl)-4-methoxy-1H-indole-2-carboxamide] | 100 to 1000 nM |
| COc1cccc2[nH]c(C(=O)N[C@@H](CCc3ccccc3)C(=O)N[C@H](C#N)C[C@@H]3CCNC3=O)cc12 [Example 8, N—((S)-1-(((S)-1-cyano-2-((S)-2-oxopyrrolidin-3-yl)ethyl)amino)-1-oxo-4-phenylbutan-2-yl)-4-methoxy-1H-indole-2-carboxamide] | 100 to 1000 nM |
| COc1cccc2[nH]c(C(=O)N[C@@H](CC3CCCCC3)C(=O)N[C@H](C#N)C[C@@H]3CCCNC3=O)cc12 [Example 14, N—((S)-1-(((S)-1-cyano-2-((S)-2-oxopiperidin-3-yl)ethyl)amino)-3-cyclohexyl-1-oxopropan-2-yl)-4-methoxy-1H-indole-2-carboxamide] | < 100 nM |
| COc1cccc2[nH]c(C(=O)N[C@H](C(=O)N[C@H](C#N)C[C@@H]3CCNC3=O)C(C)C)cc12 [Example 7, N—((S)-1-(((S)-1-cyano-2-((S)-2-oxopyrrolidin-3-yl)ethyl)amino)-3-methyl-1-oxobutan-2-yl)-4-methoxy-1H-indole-2-carboxamide] | > 1000 nM |
| COc1cccc2[nH]c(C(=O)N[C@@H](Cc3ccccc3)C(=O)N[C@H](C#N)C[C@@H]3CCCNC3=O)cc12 [Example 18, N—((S)-1-(((S)-1-cyano-2-((S)-2-oxopiperidin-3-yl)ethyl)amino)-1-oxo-3-phenylpropan-2-yl)-4-methoxy-1_H-indole-2-carboxamide] | 100 to 1000 nM |
| COc1cccc2[nH]c(C(=O)N[C@@H](CCSC)C(=O)N[C@H](C#N)C[C@@H]3CCNC3=O)cc12 [Example 12, N—((S)-1-(((S)-1-cyano-2-((S)-2-oxopyrrolidin-3-yl)ethyl)amino)-4-(methylthio)-1-oxobutan-2-yl)-4-methoxy-1H-indole-2-carboxamide] | 100 to 1000 nM |
| COc1cccc2[nH]c(C(=O)N[C@H](C(=O)N[C@H](C#N)C[C@@H]3CCNC3=O)c3ccccc3)cc12 [Example 5, N—((S)-2-(((S)-1-cyano-2-((S)-2-oxopyrrolidin-3-yl)ethyl)amino)-2-oxo-1-phenylethyl)-4-methoxy-1H-indole-2-carboxamide] | > 1000 nM |
| COc1cccc2[nH]c(C(=O)N[C@@H](CC(F)(F)F)C(=O)N[C@H](C#N)C[C@@H]3CCNC3=O)cc12 [Example 25, N—((S)-1-(((S)-1-cyano-2-((S)-2-oxopyrrolidin-3-yl)ethyl)amino)-4,4,4-trifluoro-1-oxobutan-2-yl)-4-methoxy-1H-indole-2-carboxamide] | 100 to 1000 nM |
| N#C[C@H](C[C@@H]1CCCNC1=O)NC(=O)[C@H](CC1CCCCC1)NC(=O)c1cc2ccccc2o1 [Example 15, N—((S)-1-(((S)-1-cyano-2-((S)-2-oxopiperidin-3-yl)ethyl)amino)-3-cyclohexyl-1-oxopropan-2-yl)benzofuran-2-carboxamide] | 100 to 1000 nM |
| COc1cccc2[nH]c(C(=O)N[C@@H](Cc3ccccc3)C(=O)N[C@H](C#N)C[C@@H]3CCNC3=O)cc12 [Example 3, N—((S)-1-(((S)-1-cyano-2-((S)-2-oxopyrrolidin-3-yl)ethyl)amino)-1-oxo-3-phenylpropan-2-yl)-4-methoxy-1H-indole-2-carboxamide] | 100 to 1000 nM |
